Test results taken from ChEMBL document CHEMBL1201862, “PubChem BioAssay data set” (2004).
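These data come from cells grown in 96-well plates and exposed to compound for 48 hours at five concentrations. At the GI50, growth is halved.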 Calls of active or inactive are those of the source. No stated cut-off is given here; in the data, active = GI50 up to about 1.1 µM and inactive = higher. *1 amine or outer side, *2 acyl side, *3 side chain or, on linkers, in order; H or OH if unused. Where a SMILES comes first, the peptide text is derived from it. [ ]: non-standard residue; d: D form. The star is where a group is joined. ξ: configuration not given here. X53 = CC(C)C[C@H](N[*:1])C1=N[C@H](C(=O)[*:2])CS1; Ile(3ξ) = CCC(C)[C@H](N)C(=O)O; Allyl(1,1-Me2) = C=CC(C)(C)*

Legend:
Assay in all cases: NCI tumour cell line growth inhibition, 48 h
786-0 = system: 786-0
A498 = system: A498
A549 = system: A549
ACHN = system: ACHN
BT-549 = system: BT-549
CCRF-CEM = system: CCRF-CEM
COLO 205 = system: COLO 205
DU-145 = system: DU-145
EKVX = system: EKVX
HCC 2998 = system: HCC 2998
HCT-116 = system: HCT-116
HCT-15 = system: HCT-15
HL-60 = system: HL-60
HOP-62 = system: HOP-62
HOP-92 = system: HOP-92
HT-29 = system: HT-29
Hs-578T = system: Hs-578T
IGROV-1 = system: IGROV-1
K562 = system: K562
KM12 = system: KM12
LOX IMVI = system: LOX IMVI
M14 = system: M14
MCF7 = system: MCF7
MDA-MB-231 = system: MDA-MB-231
MDA-MB-435 = system: MDA-MB-435
MDA-N = system: MDA-N
MOLT-4 = system: MOLT-4
Malme-3M = system: Malme-3M
NCI-H226 = system: NCI-H226
NCI-H23 = system: NCI-H23
NCI-H460 = system: NCI-H460
NCI/ADR-RES = system: NCI/ADR-RES
OVCAR-3 = system: OVCAR-3
OVCAR-4 = system: OVCAR-4
OVCAR-5 = system: OVCAR-5
PC-3 = system: PC-3
RPMI-8226 = system: RPMI-8226
RXF 393 = system: RXF 393
SF-268 = system: SF-268
SF-539 = system: SF-539
SK-MEL-28 = system: SK-MEL-28
SK-MEL-2 = system: SK-MEL-2
SK-MEL-5 = system: SK-MEL-5
SK-OV-3 = system: SK-OV-3
SN12C = system: SN12C
SNB-19 = system: SNB-19
SR = system: SR
SW-620 = system: SW-620
T47D = system: T47D
TK-10 = system: TK-10
U-251 = system: U-251
UACC-257 = system: UACC-257
UACC-62 = system: UACC-62
UO-31 = system: UO-31
CAKI-1 = system: CAKI-1
NCI-H522 = system: NCI-H522
OVCAR-8 = system: OVCAR-8
SF-295 = system: SF-295
SNB-75 = system: SNB-75

Clc1nc(-[n+]2ccc(-c3ccncc3)cc2)nc(Nc2ccccc2)c1Cl
GI50 (786-0): 83.8 µM (inactive)
GI50 (A498): > 100 µM (inactive)
GI50 (A549): > 100 µM (inactive)
GI50 (ACHN): > 100 µM (inactive)
GI50 (BT-549): > 100 µM (inactive)
GI50 (CCRF-CEM): 27.9 µM (inactive)
GI50 (COLO 205): > 100 µM (inactive)
GI50 (DU-145): > 100 µM (inactive)
GI50 (EKVX): 83.8 µM (inactive)
GI50 (HCC 2998): > 100 µM (inactive)
GI50 (HCT-116): > 100 µM (inactive)
GI50 (HCT-15): > 100 µM
GI50 (HL-60): 35.3 µM (inactive)
GI50 (HOP-62): > 100 µM (inactive)
GI50 (HOP-92): > 100 µM (inactive)
GI50 (HT-29): > 100 µM (inactive)
GI50 (Hs-578T): > 100 µM (inactive)
GI50 (IGROV-1): 59.7 µM (inactive)
GI50 (K562): 52.1 µM (inactive)
GI50 (KM12): > 100 µM (inactive)
GI50 (LOX IMVI): 50.4 µM (inactive)
GI50 (M14): > 100 µM (inactive)
GI50 (MCF7): 33.1 µM (inactive)
GI50 (MDA-MB-231): > 100 µM (inactive)
GI50 (MDA-MB-435): > 100 µM (inactive)
GI50 (MDA-N): > 100 µM (inactive)
GI50 (MOLT-4): 49.1 µM (inactive)
GI50 (Malme-3M): > 100 µM (inactive)
GI50 (NCI-H226): > 100 µM (inactive)
GI50 (NCI-H23): > 100 µM (inactive)
GI50 (NCI-H460): > 100 µM (inactive)
GI50 (NCI/ADR-RES): > 100 µM (inactive)
GI50 (OVCAR-3): > 100 µM (inactive)
GI50 (OVCAR-4): > 100 µM (inactive)
GI50 (OVCAR-5): > 100 µM (inactive)
GI50 (PC-3): > 100 µM (inactive)
GI50 (RPMI-8226): 57.9 µM (inactive)
GI50 (RXF 393): > 100 µM (inactive)
GI50 (SF-268): > 100 µM (inactive)
GI50 (SF-539): > 100 µM (inactive)
GI50 (SK-MEL-28): > 100 µM (inactive)
GI50 (SK-MEL-2): > 100 µM (inactive)
GI50 (SK-MEL-5): > 100 µM (inactive)
GI50 (SK-OV-3): > 100 µM (inactive)
GI50 (SN12C): > 100 µM (inactive)
GI50 (SNB-19): > 100 µM (inactive)
GI50 (SR): 26.2 µM (inactive)
GI50 (SW-620): 66.8 µM (inactive)
GI50 (T47D): 43.7 µM (inactive)
GI50 (TK-10): > 100 µM (inactive)
GI50 (U-251): 70.5 µM (inactive)
GI50 (UACC-257): > 100 µM (inactive)
GI50 (UACC-62): > 100 µM (inactive)
GI50 (UO-31): > 100 µM (inactive)

Cc1cc2c([N+](=O)[O-])cc3c(c2o1)C(=O)C=CC3=O
GI50 (786-0): 2.01 µM (inactive)
GI50 (A498): 15.5 µM (inactive)
GI50 (A549): 18.3 µM (inactive)
GI50 (ACHN): 1.89 µM (inactive)
GI50 (BT-549): 16.6 µM (inactive)
GI50 (CAKI-1): 1.06 µM (active)
GI50 (CCRF-CEM): 1.43 µM (inactive)
GI50 (COLO 205): 2.3 µM (inactive)
GI50 (DU-145): 7.93 µM (inactive)
GI50 (EKVX): 3.37 µM (inactive)
GI50 (HCC 2998): 30.5 µM (inactive)
GI50 (HCT-116): 5.51 µM (inactive)
GI50 (HCT-15): 15 µM
GI50 (HL-60): 2.2 µM (inactive)
GI50 (HOP-62): 19 µM (inactive)
GI50 (HOP-92): 1.72 µM (inactive)
GI50 (HT-29): 2.12 µM (inactive)
GI50 (Hs-578T): 18.5 µM (inactive)
GI50 (IGROV-1): 7.41 µM (inactive)
GI50 (K562): 1.79 µM (inactive)
GI50 (KM12): 16.6 µM (inactive)
GI50 (LOX IMVI): 6.76 µM (inactive)
GI50 (M14): 5.58 µM (inactive)
GI50 (MCF7): 4.18 µM (inactive)
GI50 (MDA-MB-231): 18.7 µM (inactive)
GI50 (MDA-MB-435): 3.2 µM (inactive)
GI50 (MDA-N): 14.5 µM (inactive)
GI50 (MOLT-4): 0.415 µM (active)
GI50 (NCI-H226): 28.6 µM (inactive)
GI50 (NCI-H23): 17.7 µM (inactive)
GI50 (NCI-H460): 18.5 µM (inactive)
GI50 (NCI-H522): 1.52 µM (inactive)
GI50 (NCI/ADR-RES): 22.9 µM (inactive)
GI50 (OVCAR-3): 5.64 µM (inactive)
GI50 (OVCAR-4): 16.1 µM (inactive)
GI50 (OVCAR-5): 20 µM (inactive)
GI50 (OVCAR-8): 19.6 µM (inactive)
GI50 (PC-3): 16.4 µM (inactive)
GI50 (RPMI-8226): 0.586 µM (active)
GI50 (RXF 393): 1.89 µM (inactive)
GI50 (SF-268): 12.4 µM (inactive)
GI50 (SF-295): 8.13 µM (inactive)
GI50 (SF-539): 15.1 µM (inactive)
GI50 (SK-MEL-28): 8.85 µM (inactive)
GI50 (SK-MEL-2): 19.1 µM (inactive)
GI50 (SK-MEL-5): 14.2 µM (inactive)
GI50 (SK-OV-3): 29.5 µM (inactive)
GI50 (SN12C): 6.19 µM (inactive)
GI50 (SNB-19): 15.5 µM (inactive)
GI50 (SNB-75): 25.6 µM (inactive)
GI50 (SR): 5.41 µM (inactive)
GI50 (SW-620): 2.43 µM (inactive)
GI50 (T47D): 3.12 µM (inactive)
GI50 (TK-10): 2.38 µM (inactive)
GI50 (U-251): 17.7 µM (inactive)
GI50 (UACC-257): 2.62 µM (inactive)
GI50 (UACC-62): 15.2 µM (inactive)
GI50 (UO-31): 1.67 µM (inactive)

C=CC(C)(C)OC[C@@H]1NC(=O)CNC(=O)[C@@H]2CCCN2C(=O)[C@H](C(C)CC)NC(=O)[C@@H]2CSC(=N2)[C@H](CC(C)C)NC1=O (some centres undefined) (cyclo(GS(Allyl(1,1-Me2))[X53][Ile(3ξ)]P))
GI50 (786-0): > 100 µM (inactive)
GI50 (A498): > 100 µM (inactive)
GI50 (A549): 80 µM (inactive)
GI50 (ACHN): 76.6 µM (inactive)
GI50 (BT-549): 23.1 µM (inactive)
GI50 (CAKI-1): 75 µM (inactive)
GI50 (CCRF-CEM): 30.9 µM (inactive)
GI50 (COLO 205): > 100 µM (inactive)
GI50 (DU-145): 77.6 µM (inactive)
GI50 (EKVX): 64.3 µM (inactive)
GI50 (HCC 2998): 83 µM (inactive)
GI50 (HCT-116): 56.5 µM (inactive)
GI50 (HCT-15): 58.1 µM
GI50 (HL-60): 29.2 µM (inactive)
GI50 (HOP-62): > 100 µM (inactive)
GI50 (HOP-92): 37.3 µM (inactive)
GI50 (HT-29): 84.7 µM (inactive)
GI50 (Hs-578T): 23.2 µM (inactive)
GI50 (IGROV-1): 59 µM (inactive)
GI50 (K562): 41.7 µM (inactive)
GI50 (KM12): 55.2 µM (inactive)
GI50 (LOX IMVI): > 100 µM (inactive)
GI50 (M14): > 100 µM (inactive)
GI50 (MCF7): 40.6 µM (inactive)
GI50 (MDA-MB-231): > 100 µM (inactive)
GI50 (MDA-MB-435): 26.4 µM (inactive)
GI50 (MDA-N): > 100 µM (inactive)
GI50 (MOLT-4): 27.5 µM (inactive)
GI50 (Malme-3M): > 100 µM (inactive)
GI50 (NCI-H226): > 100 µM (inactive)
GI50 (NCI-H23): 43.9 µM (inactive)
GI50 (NCI-H460): 37.6 µM (inactive)
GI50 (NCI-H522): 32.9 µM (inactive)
GI50 (NCI/ADR-RES): > 100 µM (inactive)
GI50 (OVCAR-3): 47.9 µM (inactive)
GI50 (OVCAR-4): 22.3 µM (inactive)
GI50 (OVCAR-5): > 100 µM (inactive)
GI50 (OVCAR-8): 69.3 µM (inactive)
GI50 (PC-3): 44.2 µM (inactive)
GI50 (RPMI-8226): 18.6 µM (inactive)
GI50 (RXF 393): > 100 µM (inactive)
GI50 (SF-268): 68.4 µM (inactive)
GI50 (SF-295): 45.2 µM (inactive)
GI50 (SF-539): > 100 µM (inactive)
GI50 (SK-MEL-2): > 100 µM (inactive)
GI50 (SK-MEL-5): 32.6 µM (inactive)
GI50 (SK-OV-3): > 100 µM (inactive)
GI50 (SN12C): > 100 µM (inactive)
GI50 (SNB-19): > 100 µM (inactive)
GI50 (SNB-75): 34.5 µM (inactive)
GI50 (SR): 64.4 µM (inactive)
GI50 (T47D): 33.6 µM (inactive)
GI50 (TK-10): > 100 µM (inactive)
GI50 (U-251): > 100 µM (inactive)
GI50 (UACC-257): 38.5 µM (inactive)
GI50 (UACC-62): 72.3 µM (inactive)
GI50 (UO-31): 41.6 µM (inactive)
